Measurements taken from US8748598B2, “Analogs of 3-O-acetyl-11-keto-beta-boswellic acid” (Laila Nutraceuticals, priority 2004, dated 2014).
Converted amounts (≈) assume the structure as drawn. Like-named read-outs stand apart in the source and are kept apart here.

How the values were obtained:
MDA-MB-231 = assay: MTT cell proliferation assay, MDA-MB-231; format: cell-based, human; details: for inhibition at 10 µg/mL / IC50: Homo sapiens, MDA-MB-231
Experimental: (§1) MTT [3-(4,5-dimethylthiazol-2-yl)-2,5-diphenyltetrazolium bromide] incorporation based cell proliferation assay was performed as described previously (Reference). The cytotoxic efficacy of some analogs was evaluated in different cell lines by MTT cell proliferation assay kit (Roche Applied Sciences, Germany). The assay was carried out according to the instruction provided by the vendor. Briefly, in brief, equal numbers of cells was plated in 96-well flat-bottomed plates in 100 μl of medium and were exposed to different analogs selected from 1 to 63 at various concentrations up to 10 μg/ml for a period of three days. Vehicle control culture wells received only a maximum of 0.5% DMSO. Thereafter, 0.5 mg/ml of MTT reagent was added to each well and the microplate was incubated further for 4 h at 37° C. in presence of 5% CO2. Finally, the cells were solubilized by adding solubilizing solution and allowed to incubate at 37° C. overnight. After complete solubilization of the formazan crystals the absorbance was read at 540 nm in a microplate reader (BioRad, USA). The results (mean OD±SD) obtained from quadruplicate wells were used in calculation to determine the inhibition of cell proliferation (50% of inhibitory concentration, IC50) of the test compounds.
(§2) The cytotoxic properties of some analogs were evaluated by MTT incorporation assay. The methodology of the assay procedure was the same as mentioned in example 41.

MCF-7 = assay: MTT cell proliferation assay, MCF-7; format: cell-based, human; details: for inhibition at 10 µg/mL / IC50: Homo sapiens, MCF7
Experimental: as §1, §2

potato 5-lipoxygenase = assay: 5-Lipoxygenase enzyme inhibitory activity; format: biochemical
Experimental: 5-Lipoxygenase enzyme inhibitory activity was measured using the method of Schewe et al. (Adv Enzymol, Vol 58, 191-272, 1986), modified by Reddanna et. al., (Methods of Enzymology, Vol 187, 268-277, 1990). The assay mixture contained 80 μM linoleic acid and sufficient amount of potato 5-lipoxygenase in 50 mM phosphate buffer (pH 6.3). The reaction was initiated by the addition of enzyme buffer mix to linoleic acid and the enzyme activity was monitored as the increase in absorbance at 234 nm. The reaction was monitored for 120 sec and the inhibitory potential of the test substances (29, 31, 33, 34, 35, 36, 39, 40, 43, 44, 46, 47, 48, 49, 50, 54, 57, 59, 62 & 63) was measured by incubating various concentrations of test substances two minutes before the addition of linoleic acid. All assays were performed three times. Percentage inhibition was calculated by comparing the slope of the curve obtained for test substances with that of the control.

A549 = assay: MTT cell proliferation assay, A549; format: cell-based, human; details: Homo sapiens, A549; Table 2; 10 ug/ml
Experimental: as §1

[1] = Table 4, 10 μg/ml, read-out: Percentage Inhibition of cell proliferation MDA-MB-231
[2] = Table 4, 10 μg/ml, read-out: Percentage Inhibition of cell proliferation MCF-7
[3] = Table 2, 10 ug/ml, read-out: Inhibition of cell proliferation MDA-MB-231, % at 10 ug/ml
[4] = Table 2, 10 ug/ml, read-out: Inhibition of cell proliferation MCF-7, % at 10 ug/ml

Row | SMILES | inhibition at 10 µg/mL (MDA-MB-231; [1]) [%] | inhibition at 10 µg/mL (MCF-7; [2]) [%] | % inhibition at 10 μg/ml (potato 5-lipoxygenase) [%] | % inhibition at 25 μg/ml (potato 5-lipoxygenase) [%] | also measured
1 | CC1CCC2(C)CCC3(C)C(=CC(=O)C4C5(C)CCC(OC(=O)CCC(=O)O)C(C)(C(=O)O)C5CCC43C)C2C1C (stereo not shown) [Analog 4] |  |  |  |  | Percentage Inhibition of cell proliferation MDA-MB-231 (MDA-MB-231; Table 4, 10 μg/ml): 40.7% at 10 μg/ml; Percentage Inhibition of cell proliferation MCF-7 (MCF-7; Table 4, 10 μg/ml): 26.6% at 10 μg/ml
2 | COC(=O)[C@]1(C)C2CC[C@]3(C)C(C(=O)C=C4C5[C@@H](C)[C@H](C)CC[C@]5(C)CC[C@]43C)[C@@]2(C)CC[C@H]1S (stereo partly shown) [Analog 15] | 37.5 | 21.6 |  |  | 
3 | CC(=O)OC1CC[C@@]2(C)C(CC[C@]3(C)C2C(=O)C=C2C4[C@@H](C)[C@H](C)CC[C@]4(C)CC[C@]23C)[C@@]1(C)C(=O)OCCN(C)C (stereo partly shown) [Analog 18] |  |  |  |  | Percentage Inhibition of cell proliferation MCF-7 (MCF-7; Table 4, 10 μg/ml): 5.97 at 10 μg/ml %
4 | CCCCNC(=O)[C@]1(C)C2CC[C@]3(C)C(C(=O)C=C4C5[C@@H](C)[C@H](C)CC[C@]5(C)CC[C@]43C)[C@@]2(C)CC[C@H]1OC(C)=O (stereo partly shown) [Analog 29] |  |  | 33.29 |  | Inhibition of cell proliferation MDA-MB-231, % at 10 ug/ml (MDA-MB-231; Table 2, 10 ug/ml): 36% at 10; Percentage Inhibition of cell proliferation MDA-MB-231 (MDA-MB-231; Table 4, 10 μg/ml): 36% at 10 μg/ml; Inhibition of cell proliferation MCF-7, % at 10 ug/ml (MCF-7; Table 2, 10 ug/ml): 38.3% at; Percentage Inhibition of cell proliferation MCF-7 (MCF-7; Table 4, 10 μg/ml): 38.3 at 10 μg/ml %
5 | CC(=O)O[C@@H]1CC[C@@]2(C)C(CC[C@]3(C)C2C(=O)C=C2C4[C@@H](C)[C@H](C)CC[C@]4(C)CC[C@]23C)[C@@]1(C)C(=O)NC(C)C (stereo partly shown) [Analog 30] | 35 | 46 |  |  | inhibition at 10 µg/mL (MDA-MB-231; [3]): 35%; inhibition at 10 µg/mL (MCF-7; [4]): 46%; inhibition at 10 µg/mL (A549): 18%
6 | COC(=O)CNC(=O)[C@]1(C)C2CC[C@]3(C)C(C(=O)C=C4C5[C@@H](C)[C@H](C)CC[C@]5(C)CC[C@]43C)[C@@]2(C)CC[C@H]1OC(C)=O (stereo partly shown) [Analog 32] | 41 | 14 |  |  | inhibition at 10 µg/mL (MDA-MB-231; [3]): 41%; inhibition at 10 µg/mL (MCF-7; [4]): 14%; inhibition at 10 µg/mL (A549): 10%
7 | CC(=O)O[C@@H]1CC[C@@]2(C)C(CC[C@]3(C)C2C(=O)C=C2C4[C@@H](C)[C@H](C)CC[C@]4(C)CC[C@]23C)[C@@]1(C)C(=O)N1CCOCC1 (stereo partly shown) [Analog 37] | 23 |  |  |  | 
8 | C[C@@H]1CC[C@]2(C)CC[C@]3(C)C(=CC(=O)C4[C@@]5(C)CC[C@@H](O)[C@](C)(C(=O)N6CCN(CCO)CC6)C5CC[C@]43C)C2[C@H]1C (stereo partly shown) [Analog 38] | 20 | 2.73 |  |  | 
9 | CC(=O)O[C@@H]1CC[C@@]2(C)C(CC[C@]3(C)C2C(=O)C=C2C4[C@@H](C)[C@H](C)CC[C@]4(C)CC[C@]23C)[C@@]1(C)C(=O)N1CCN(CCO)CC1 (stereo partly shown) [Analog 39] |  |  | 32.11 | 48.69 | 
10 | CC(=O)O[C@@H]1CC[C@@]2(C)C(CC[C@]3(C)C2C(=O)C=C2C4[C@@H](C)[C@H](C)CC[C@]4(C)CC[C@]23C)[C@@]1(C)C(=O)n1ccnc1 (stereo partly shown) [Analog 40] | 31 | 2.7 | 18.40 | 40.47 | 
11 | CC(=O)O[C@@H]1CC[C@@]2(C)C(CC[C@]3(C)C2C(=O)C=C2C4[C@@H](C)[C@H](C)CC[C@]4(C)CC[C@]23C)[C@@]1(C)C(=O)NC1Cc2ccccc2C1 (stereo partly shown) [Analog 41] | 23 | 3.74 |  |  | 
12 | CC(=O)O[C@@H]1CC[C@@]2(C)C(CC[C@]3(C)C2C(=O)C=C2C4[C@@H](C)[C@H](C)CC[C@]4(C)CC[C@]23C)[C@@]1(C)C(=O)Nc1ccccc1 (stereo partly shown) [Analog 42] | 6 | 2.33 |  |  | 
13 | CNC(=O)[C@]1(C)C2CC[C@]3(C)C(C(=O)C=C4C5[C@@H](C)[C@H](C)CC[C@]5(C)CC[C@]43C)[C@@]2(C)CC[C@H]1OC(C)=O (stereo partly shown) [Analog 43] | 47.8 | 12.6 | 14.57 | 30.90 | 
14 | CC(=O)O[C@@H]1CC[C@@]2(C)C(CC[C@]3(C)C2C(=O)C=C2C4[C@@H](C)[C@H](C)CC[C@]4(C)CC[C@]23C)[C@@]1(C)C(=O)Nc1ccccc1Br (stereo partly shown) [Analog 44] |  |  | 19.88 | 30.02 | IC50 (MDA-MB-231; Table 4): 28.6 µg/mL (≈ 43 µM); IC50 (MCF-7; Table 4): 24.1 µg/mL (≈ 36.1 µM)
15 | CC(=O)O[C@@H]1CC[C@@]2(C)C(CC[C@]3(C)C2C(=O)C=C2C4[C@@H](C)[C@H](C)CC[C@]4(C)CC[C@]23C)[C@@]1(C)C(=O)N(C)CCO (stereo partly shown) [Analog 45] |  |  |  |  | IC50 (MDA-MB-231; Table 4): 12 µg/mL (≈ 21 µM); IC50 (MCF-7; Table 4): 11.9 µg/mL (≈ 20.8 µM)
16 | CC(=O)O[C@@H]1CC[C@@]2(C)C(CC[C@]3(C)C2C(=O)C=C2C4[C@@H](C)[C@H](C)CC[C@]4(C)CC[C@]23C)[C@@]1(C)C(=O)Nc1ccc(O)cc1 (stereo partly shown) [Analog 46] |  | 39 | 19.01 | 30.56 | 
17 | CC(=O)O[C@@H]1CC[C@@]2(C)C(CC[C@]3(C)C2C(=O)C=C2C4[C@@H](C)[C@H](C)CC[C@]4(C)CC[C@]23C)[C@@]1(C)C(=O)NNc1ccccc1 (stereo partly shown) [Analog 47] | 39 | 10 | 35.94 | 54.10 | 
18 | CC(=O)O[C@@H]1CC[C@@]2(C)C(CC[C@]3(C)C2C(=O)C=C2C4[C@@H](C)[C@H](C)CC[C@]4(C)CC[C@]23C)[C@@]1(C)C(=O)NCCN(CCO)CCO (stereo partly shown) [Analog 49] |  |  | 31.55 | 47.02 | Percentage Inhibition of cell proliferation MDA-MB-231 (MDA-MB-231; Table 4, 10 μg/ml): 21.4 at 10 μg/ml %; Percentage Inhibition of cell proliferation MCF-7 (MCF-7; Table 4, 10 μg/ml): 40.9% at 10 ug/ml
19 | CC(=O)O[C@@H]1CC[C@@]2(C)C(CC[C@]3(C)C2CC=C2C4[C@@H](C)[C@H](C)CC[C@]4(C)CC[C@]23C)[C@@]1(C)C(=O)NCCN (stereo partly shown) [Analog 51] |  |  |  |  | IC50 values MDA-MB-231 (MDA-MB-231; Table 4): IC50 at 10.5 μg/ml; IC50 values MCF-7 (MCF-7; Table 4): IC50 at 9.27 μg/ml
20 | CC(=O)O[C@@H]1CC[C@@]2(C)C(CC[C@]3(C)C2CC=C2C4[C@@H](C)[C@H](C)CC[C@]4(C)CC[C@]23C)[C@@]1(C)C(=O)N1CCNCC1 (stereo partly shown) [Analog 54] |  |  | 35.69 | 64.24 | 
21 | COC(=O)CCC(NC(=O)[C@]1(C)C2CC[C@]3(C)C(C(=O)C=C4C5[C@@H](C)[C@H](C)CC[C@]5(C)CC[C@]43C)[C@@]2(C)CC[C@H]1OC(C)=O)C(=O)OC (stereo partly shown) [Analog 56] | 47 | 20 |  |  | 
22 | C[C@@H]1CC[C@]2(C)CC[C@]3(C)C(=CC(Cl)=C4[C@@]5(C)CC[C@@H](O)[C@](C)(C(=O)O)C5CC[C@]43C)C2[C@H]1C (stereo partly shown) [Analog 59] |  |  | 21.46 | 39.24 | 
23 | CC(=O)O[C@@H]1CC[C@]2(C)C3=C(Cl)C=C4C5[C@@H](C)[C@H](C)CC[C@]5(C)CC[C@@]4(C)[C@]3(C)CCC2[C@@]1(C)C(=O)NCCN (stereo partly shown) [Analog 61] |  | 41 |  |  | IC50 (MDA-MB-231; Table 4): 8.55 µg/mL (≈ 14.9 µM)
24 | CC(=O)O[C@@H]1CC[C@]2(C)C3=C(Cl)C=C4C5[C@@H](C)[C@H](C)CC[C@]5(C)CC[C@@]4(C)[C@]3(C)CCC2[C@@]1(C)C(=O)NN (stereo partly shown) [Analog 62] |  |  | 36.26 |  | 
25 | CC(=O)O[C@@H]1CC[C@]2(C)C3=C(Cl)C=C4C5[C@@H](C)[C@H](C)CC[C@]5(C)CC[C@@]4(C)[C@]3(C)CCC2[C@@]1(C)C(=O)N1CCNCC1 (stereo partly shown) [Analog 63] |  |  | 36.20 | 57.86 | 
